Experimental data from PMC6097146, “Drug‐Bearing Supramolecular MMP Inhibitor Nanofibers for Inhibition of Metastasis and Growth of Liver Cancer” (Advanced Science, 2018).
In brackets after ≈: the same amount, converted by molar mass. Where no end group is shown, it is not given here.

How the values were obtained:
SMMC7721 cells [1] = assay: In vitro migration assay (transwell); assay type: cell-based; details: SMMC7721 cells treated 24 h with 2.5 µg mL^−1 DOX/well, then 24 h transwell incubation, crystal violet
Experimental: Microscopy images of b) migration and c) invasion and e,f) quantitative analysis of SMMC7721 cells that passed through the membrane. […] Cells without treatments were used as control.
Then, 500 µL of media were added to the lower chamber as a chemoattractant. […] Cells that got through the membrane and were located on the lower surface were fixed using 4% paraformaldehyde, stained with crystal violet, and quantified with a microplate reader (Leica, Germany).

SMMC7721 cells [2] = assay: MTT cell toxicity assay; assay type: cell-based; details: 24 h incubation, mean ± SD (n = 6)
Experimental: (§1) Data are given as the mean ± SD (n = 6).
Cell Toxicity Assay: Cytotoxicity in SMMC7221 cells was quantified using an MTT assay. Cells were incubated in Dulbecco's modified Eagle medium (DMEM) medium containing 10% fetal calf serum at 37 °C in an atmosphere of 5% CO2 in air. For the cytotoxicity assay, SMMC7721 cells were precultured in 96‐well cell culture plates at a density of 1.0 × 10^5 cells per well in 100 µL of medium and grown overnight.

[3] = rat, in vivo
Experimental: The dynamic behavior of the nanofiber was monitored at predetermined intervals after injection by liquid chromatography‐tandem mass spectrometry (LC/MS/MS).
The rats were anaesthetized with ether. A heparinized capillary was then inserted into eyeground veins to obtain 0.3 mL of blood in a plastic centrifuge tube. Plasma samples were collected by centrifugation at 12 000 rpm for 5 min and then stored immediately at −20 °C until analysis. Next, 300 µL of acetonitrile containing an internal standard (clarithromycin, 20 ng mL^−1) were added to the 100 µL plasma samples to precipitate protein, the mixture was centrifuged at 13 000 rpm for 5 min, and 50 µL of supernatant were assayed by LC/MS/MS.

SMMC7721 tumors = assay: Inhibition of liver tumor growth in mice bearing SMMC7721 tumors; assay type: in vivo; details: intratumor injection, 5 mg kg^−1 DOX, versus saline and KGFRWR groups
Experimental: At the end of the experiment, tumors were photographed and weighed.
The body weight and tumor volume were recorded and calculated three times a week for three weeks. The tumor length (L), which is the longest diameter of the tumor, and width (W), which is the diameter in the direction perpendicular to the length, were measured using Vernier calipers, and the tumor volume (V) was counted using the following formula: V = LW ^2/2. Then, mice were sacrificed and photographed, and the primary tumors and the lungs were striped, and then washed with cold PBS. Primary tumors were weighed and photographed. Histological sections of the primary tumors were used for the following three purposes: first, the sections were stained with H&E to detect tumor apoptosis and necrosis; second, TUNEL staining was used to detect DNA fragmentation in the nucleus of late apoptotic cells in the tissue; and third, sections were incubated with an anticaspase‐3 rabbit antibody (1:200 dilution) followed by a horseradish peroxidase‐labeled antirabbit immunoglobulins (Abcam, UK) for color development and then counterstained with hematoxylin.

[4] = test system: SMMC7721 pulmonary metastasis; assay: SMMC7721 pulmonary metastatic mouse model; assay type: in vivo; details: SMMC7721 cells injected through the tail vein into nude mice, day 21, compared with saline/control group, n = 6
Experimental: The antimetastatic effects were evaluated by determining the number of metastatic nodules and the degree of H&E staining in the lung tissues.
as §1
Then, mice were sacrificed and photographed, and the primary tumors and the lungs were striped, and then washed with cold PBS. […] For pulmonary metastatic assays, SMMC7721 cells were trypsinized, suspended in complete medium at a density of 1 × 10^7 cells mL^−1, and then immediately intravenously injected into the nude mice through the tail vein. Images of metastatic nodules on the lungs were obtained with a camera and nodules were counted; histological sections of lungs were stained with H&E for the histopathological examination.

MMP-2 = target: T1, MMP-2 (Homo sapiens, UniProt P08253); assay: MMP-2 inhibitor screening assay (fluorescent substrate method); assay type: biochemical
T1 sequence (P08253 110-660): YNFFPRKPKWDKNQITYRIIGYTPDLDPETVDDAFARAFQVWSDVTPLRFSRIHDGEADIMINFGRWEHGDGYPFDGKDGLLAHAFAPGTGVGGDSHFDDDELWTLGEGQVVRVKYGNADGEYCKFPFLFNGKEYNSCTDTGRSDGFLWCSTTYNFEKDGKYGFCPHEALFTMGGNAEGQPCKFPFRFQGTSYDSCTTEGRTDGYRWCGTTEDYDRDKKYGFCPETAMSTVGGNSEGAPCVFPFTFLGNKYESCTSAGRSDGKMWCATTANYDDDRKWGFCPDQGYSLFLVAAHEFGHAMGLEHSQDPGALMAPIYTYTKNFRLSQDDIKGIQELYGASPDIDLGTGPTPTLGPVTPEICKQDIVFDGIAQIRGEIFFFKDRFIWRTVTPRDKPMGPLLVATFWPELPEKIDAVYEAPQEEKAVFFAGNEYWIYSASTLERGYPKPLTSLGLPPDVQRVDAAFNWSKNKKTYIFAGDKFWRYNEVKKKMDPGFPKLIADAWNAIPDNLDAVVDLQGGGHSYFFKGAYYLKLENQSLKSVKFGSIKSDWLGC
Experimental: MMP‐2 Inhibitor Screening Assay: The MMP‐2 inhibitory activity of the samples was analyzed using a fluorescent substrate method, as previously described.23 The MMP substrate peptide MOCAC‐Pro‐Leu‐Gly‐Leu‐Dap(Dnp)‐Ala‐Arg‐NH2 was purchased from Sigma. […] The fluorescence intensity was measured at 328 nm for excitation and 393 nm for emission every 15 min for a 2 h period without interrupting the reaction using a fluorescence microplate reader (POLARstar Omega, Germany).

T1/2 [3] [h]	T max [3] [h]	Compound	migration rate compared with control (SMMC7721 cells [1]) [%]	IC50 (SMMC7721 cell growth) (SMMC7721 cells [2]) [µg/mL]	tumor growth (in words) (SMMC7721 tumors)	number of pulmonary metastatic nodules [4]	IC50 (MMP-2) [µM]
6.90 ± 1.20	0.43 ± 0.16	COc1cccc2c1C(=O)c1c(O)c3c(c(O)c1C2=O)C[C@@](O)(C(=O)CO)C[C@@H]3O[C@H]1C[C@H](N)[C@H](O)[C@H](C)O1 [DOX, doxorubicin]	39.4	1.888 (≈ 3.47 µM)	inhibited tumor growth	distinctly decreased	–
–	–	KGFRWR-NH2 [KGFRWR]	–	–	–	–	14.2
